# Columns and labels:
# [1] = target: T1, immunocaptured catalase (Homo sapiens, UniProt P04040); test: Relative specific activity of immunocaptured catalase (SpCAT) after incubation with NaSH; assay type: biochemical; conditions: for effect of NaSH on SpCAT: NaSH 0–50 μM
# T1 construct: Endogenous catalase activity in cell lysates; endogenous in cells; host or cells: human colorectal cancer cell lines; BE2-M17 human neuroblastoma cells (with or without rotenone)
# T1 sequence (P04040 2-527 limits assumed): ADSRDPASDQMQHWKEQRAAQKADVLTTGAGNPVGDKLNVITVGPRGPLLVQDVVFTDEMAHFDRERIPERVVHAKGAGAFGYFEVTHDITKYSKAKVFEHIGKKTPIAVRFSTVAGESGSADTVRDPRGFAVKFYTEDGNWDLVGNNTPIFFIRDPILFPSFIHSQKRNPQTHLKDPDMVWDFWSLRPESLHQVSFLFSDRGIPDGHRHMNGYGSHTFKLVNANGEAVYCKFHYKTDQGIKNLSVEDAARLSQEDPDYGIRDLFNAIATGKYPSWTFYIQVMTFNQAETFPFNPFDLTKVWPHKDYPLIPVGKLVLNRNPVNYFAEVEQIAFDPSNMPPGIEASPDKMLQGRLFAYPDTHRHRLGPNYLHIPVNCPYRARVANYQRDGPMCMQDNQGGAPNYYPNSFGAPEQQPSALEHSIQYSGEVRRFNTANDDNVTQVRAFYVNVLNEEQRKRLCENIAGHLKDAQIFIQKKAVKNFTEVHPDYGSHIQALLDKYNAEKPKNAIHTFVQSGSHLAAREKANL
# Description: The relative specific activity (activity and quantity) of catalase in the cell lysates was determined using the kit ab118184 from Abcam (Cambridge, MA). The measurements were performed in duplicate as per the manufacturer's protocol. Briefly, catalase in cell lysates (0.1–0.2 mg cell lysates per assay) was immunocaptured within the wells of the microplate. An assay buffer, which contains H2O2 that reacts with a substrate to generate a luminescent product, was added to each well. The presence of catalase in the reaction mixture reduces the production of light and the light produced in each well is thus inversely proportional to the amount of catalase activity. Then, the quantity of catalase was measured by adding to each well an anti-catalase primary detector antibody. After 1 h incubation at RT, the unbound detector antibody was washed away and an HRP-conjugated labelled secondary antibody specific for the primary detector antibody was added to the wells. After 1 h incubation, the wells were again washed and a 3,3′,5,5′-Tetramethylbenzidine (TMB) substrate solution was added to the wells. A blue colour (absorbance at 600 nm) developed in proportion to the amount of catalase bound. Luminescence and absorbance measurements were performed on an EnSpire Multilabel Reader 2300 (PerkinElmer). To check the effect of NaSH on the relative specific activity of catalase, the immunocaptured catalase was incubated with various concentrations of NaSH (0–50 μM) for 5 min at RT before carefully washing twice each well. The protocol above was then followed to determine activity measurement and catalase quantification.
# [2] = system: HCT-116 cells; test: H2O2 consumption in cell lysates as a function of NaSH concentration; assay type: biochemical, human; conditions: HCT-116 cell lysate; read-out: relative IC50 (rate of H2O2 consumption)
# Description: (§1) CAT activity was measured on an Uvikon 941 spectrophotometer equipped with a temperature controlled water bath (±1 °C) by following the disappearance of H2O2 at 240 nm over 30–120 s at 25 °C. Catalase activity was calculated based on the rate of decomposition of hydrogen peroxide, which is proportional to the reduction of the absorbance at 240 nm. Experiments were carried out in a 3 ml quartz cuvette containing 11.7 mM H2O2 in 50 mM KPi, pH 7.4±1 mM DTPA and the reaction was initiated by adding 0.3–0.6 pmoles of CAT. The effect of biological thiols on the activity of CAT under physiological conditions was determined from a solution of CAT (30–60 nM) preincubated at 25 °C for at least 120 min as a function thiol concentration (0–40 mM for HCys and Cys, 0–100 mM for GSH) in 50 mM KPi, pH 7.4, 1 mM DTPA. Control experiments (biological thiols alone) were also performed in parallel. In each case, 10 μl of the reaction mixture (biological thiols±CAT) was added to the cuvette containing the H2O2 solution to initiate the reaction. Similarly, the effect of biological thiols on the activity of CAT under pathological conditions was determined from a solution of CAT (30–60 nM) containing a 2.124±0.386 molar excess of iron that was preincubated with various concentrations of thiols (0–1 mM) for at least 120 min at 25 °C in 50 mM KP at pH 7.4. The relative half inhibitory concentration (IC50) values were obtained by plotting the relative activity of CAT (A, in per cent) as a function of the concentration of thiol-compounds (RSH) and by fitting the data with the following four parameter logistic equation: A=Amin+(Amax−Amin)/(1+([RSH]/IC50)^n), where Amax is the maximal activity of CAT (constrained at 100%), Amin is the minimum activity achieved at saturating concentration of RSH and n is the Hillslope that characterizes the slope of the curve at its midpoint. The inactivation rate (kinact, min^−1) was extracted from the time course of the inactivation of CAT bioactivity using a fixed concentration of HCys. Accordingly, a solution of CAT (3.5–5 μM) was incubated with 2 mM L-HCys in 50 mM KPi, pH 7.4, 1 mM DTPA. Aliquots (10 μl) were taken at intervals (0–480 min), diluted 1:50 in 50 mM KPi, pH 7.4, 1 mM DTPA and assayed for CAT activity as described above. […] The effect of NaSH on the consumption of H2O2 in cell lysates was determined from a solution of cell lysates (0.5–3 mg ml^−1) incubated on ice with various concentrations of NaSH (0–200 μM). […]
# [3] = system: MDST8 cells; test: as above; assay type: biochemical, human; conditions: MDST8 cell lysate; read-out: relative IC50 (rate of H2O2 consumption)
# Description: as §1
# [4] = system: HCT-15 cells; test: as above; assay type: biochemical, human; conditions: HCT-15 cell lysate; read-out: relative IC50 (rate of H2O2 consumption)
# Description: as §1
compound,measurement,setting,value
[Na+].[SH-] [NaSH],response of SpCAT towards NaSH,[1]; BE2-M17 cells versus rotenone-treated BE2-M17 cells,similar
same,effect of NaSH on SpCAT,[1]; HCT-15 cancer cells,inhibited
same,effect of NaSH on SpCAT,[1]; HCT-116 cancer cells,almost unaffected
same,effect of NaSH on SpCAT,[1]; HT-29 Glc−/+ control cell line,almost unaffected
same,effect of NaSH on SpCAT,[1]; MDST8 cancer cells,activated
same,IC50,[2],1.8 ± 1.5 µM
same,IC50,[3],20.4 ± 4 µM
same,IC50,[4],5.8 ± 1.8 µM
